Measurements: patent US9181218B2, “Compounds for improved stem cell differentiation into hepatocytes” (Hoffmann-La Roche Inc., priority 2013, dated 2015)

System: interferon-stimulated genes (ISGs)
Experiment: Microarray analysis of iCell Hepatocytes treated with the compound of example 1
Format: cell-based, Human
Conditions: DAY 7
From the text: iCell Hepatocytes treated with the compound of example 1 results in the up and down-regulation of a host of genes; including a kinetic effect on interferon-stimulated gene (ISGs) expression. See FIGS. 15-I and 15-II, 16-I and 16-II and 18 and Table 1.

With `O=C(NCc1cccc(F)c1)c1cccc2nc(-c3c(NC[C@@H](O)c4ccccc4)cc[nH]c3=O)[nH]c12` [Example 1, 2-[4-((S)-2-hydroxy-2-phenyl-ethylamino)-2-oxo-1,2-dihydro-pyridin-3-yl]-3H-benzoimidazole-4-carboxylic acid 3-fluoro-benzylamide] the “ARHGEF3 Raw Est Fold Change” value was −2.76, the “ASNS Raw Est Fold Change” value was 1.63 and the “ATP1B3 Raw Est Fold Change” value was −1.72. The “ATP10D Raw Est Fold Change” value was −2.21, the “AXL Raw Est Fold Change” value was 5.52 and the “B2M Raw Est Fold Change” value was −1.77. For the same compound, the “B4GALT5 Raw Est Fold Change” value was −2.50, the “BAG1 Raw Est Fold Change” value was 1.33 and the “BCL3 Raw Est Fold Change” value was −3.15. For the same compound, the “BHMT Raw Est Fold Change” value was 100.46, the “BLVRA Raw Est Fold Change” value was −2.70 and the “BRF2 Raw Est Fold Change” value was 1.46. The “C1R Raw Est Fold Change” value was −2.64, the “C1S Raw Est Fold Change” value was −2.00 and the “C4BPA Raw Est Fold Change” value was −3.52. The “C4orf33 Raw Est Fold Change” value was 1.65, the “C6orf85 Raw Est Fold Change” value was 1.31 and the “C10orf10 Raw Est Fold Change” value was −6.70. The “CAPN2 Raw Est Fold Change” value was −1.90, the “CASP1 Raw Est Fold Change” value was 1.40 and the “CASP4 Raw Est Fold Change” value was −43.41. The “CASP5 Raw Est Fold Change” value was −11.12, the “CCL19 Raw Est Fold Change” value was 2.16 and the “CCND3 Raw Est Fold Change” value was −4.18. For the same compound, the “CD3D Raw Est Fold Change” value was −3.72, the “CD9 Raw Est Fold Change” value was 4.66 and the “CD38 Raw Est Fold Change” value was −60.43. The “CD47 Raw Est Fold Change” value was −2.51, the “CD163 Raw Est Fold Change” value was 4.54 and the “CD164 Raw Est Fold Change” value was −1.47. The “CD300LF Raw Est Fold Change” value was −15.50, the “CEBPD Raw Est Fold Change” value was −6.95 and the “CFB Raw Est Fold Change” value was −2.96. The “CHST12 Raw Est Fold Change” value was −1.59, the “CKB Raw Est Fold Change” value was 2.95 and the “CLEC2D Raw Est Fold Change” value was 2.54. The “CLEC4E Raw Est Fold Change” value was 4.33, the “COL16A1 Raw Est Fold Change” value was 1.53 and the “CPT1A Raw Est Fold Change” value was 1.49. For the same compound, the “CREB3L3 Raw Est Fold Change” value was −4.65, the “CREM Raw Est Fold Change” value was 1.71 and the “CRP Raw Est Fold Change” value was −63.77. For the same compound, the “CRYM Raw Est Fold Change” value was 3.57, the “CSDA Raw Est Fold Change” value was −5.60 and the “CTGF Raw Est Fold Change” value was −3.88. For the same compound, the “CX3CR1 Raw Est Fold Change” value was 9.27, the “CXCL11 Raw Est Fold Change” value was 3.15 and the “CYP1B1 Raw Est Fold Change” value was −6.56. The “CYR61 Raw Est Fold Change” value was −7.93, the “DHFR Raw Est Fold Change” value was 2.31 and the “DNAPTP6 Raw Est Fold Change” value was 2.61. The “EFNB2 Raw Est Fold Change” value was −7.87, the “EGR1 Raw Est Fold Change” value was −4.88 and the “EHHADH Raw Est Fold Change” value was 6.99. For the same compound, the “EIF2AK2 Raw Est Fold Change” value was −1.14, the “EIF2S2 Raw Est Fold Change” value was 1.81 and the “EMP1 Raw Est Fold Change” value was 2.60. The “EPAS1 Raw Est Fold Change” value was −1.83, the “EREG Raw Est Fold Change” value was −21.64 and the “ETS2 Raw Est Fold Change” value was −2.17. For the same compound, the “ETV6 Raw Est Fold Change” value was −1.87, the “ETV7 Raw Est Fold Change” value was −3.42 and the “EWSR1 Raw Est Fold Change” value was −2.03. For the same compound, the “F3 Raw Est Fold Change” value was 2.54, the “FAM70A Raw Est Fold Change” value was 4.10 and the “FAM102A Raw Est Fold Change” value was −1.88. The “FBXO6 Raw Est Fold Change” value was 3.59, the “FCGR1A Raw Est Fold Change” value was 2.56 and the “FER1L3 Raw Est Fold Change” value was −2.43. The “FGG Raw Est Fold Change” value was −1.22, the “FLT1 Raw Est Fold Change” value was −1.38 and the “FNDC3B Raw Est Fold Change” value was −2.02. The “G6PC Raw Est Fold Change” value was 6.12, the “GALNT2 Raw Est Fold Change” value was −6.32 and the “GBP2 Raw Est Fold Change” value was −4.50. For the same compound, the “GBP3 Raw Est Fold Change” value was 2.28, the “GCH1 Raw Est Fold Change” value was 1.83 and the “GK Raw Est Fold Change” value was −2.38. For the same compound, the “GLB1 Raw Est Fold Change” value was −1.33, the “GLUL Raw Est Fold Change” value was 3.54 and the “GNB1 Raw Est Fold Change” value was −1.39. For the same compound, the “GPR171 Raw Est Fold Change” value was 1.93, the “GRN Raw Est Fold Change” value was −1.37 and the “HAO1 Raw Est Fold Change” value was 3.59. For the same compound, the “HBE1 Raw Est Fold Change” value was −2.67, the “HDAC2 Raw Est Fold Change” value was −1.34 and the “HEG1 Raw Est Fold Change” value was −4.07. The “HERC6 Raw Est Fold Change” value was −1.49, the “HESX1 Raw Est Fold Change” value was 3.01 and the “HIF1A Raw Est Fold Change” value was −4.78. For the same compound, the “HK2 Raw Est Fold Change” value was −3.18, the “HLA-DMA Raw Est Fold Change” value was −2.39 and the “HLA-DOA Raw Est Fold Change” value was 3.70. The “HPSE Raw Est Fold Change” value was −2.92, the “ICAM1 Raw Est Fold Change” value was −9.02 and the “ID1 Raw Est Fold Change” value was −5.53. The “IER3 Raw Est Fold Change” value was −9.69, the “IFI16 Raw Est Fold Change” value was −11.00 and the “IFIH1 Raw Est Fold Change” value was 1.47. For the same compound, the “IFIT1 Raw Est Fold Change” value was 16.72, the “IFIT3 Raw Est Fold Change” value was 2.91 and the “IFITM1 Raw Est Fold Change” value was −15.75. For the same compound, the “IFITM2 Raw Est Fold Change” value was −4.71, the “IFITM3 Raw Est Fold Change” value was −1.73 and the “IFNGR1 Raw Est Fold Change” value was −3.76. For the same compound, the “IGHM Raw Est Fold Change” value was 3.80, the “IKZF2 Raw Est Fold Change” value was −2.69 and the “IL1RN Raw Est Fold Change” value was −2.59. The “IL6ST Raw Est Fold Change” value was −1.83, the “IL8 Raw Est Fold Change” value was −9.22 and the “IL17RB Raw Est Fold Change” value was 1.38. The “IL28RA Raw Est Fold Change” value was 1.55, the “IMPA2 Raw Est Fold Change” value was −1.62 and the “INPP5B Raw Est Fold Change” value was 1.29. The “IQGAP1 Raw Est Fold Change” value was −2.60, the “IRF1 Raw Est Fold Change” value was 1.36 and the “IRF7 Raw Est Fold Change” value was −3.42. For the same compound, the “IRF8 Raw Est Fold Change” value was −1.86, the “ISOC1 Raw Est Fold Change” value was 1.96 and the “ITGA2 Raw Est Fold Change” value was −5.40. For the same compound, the “ITGA6 Raw Est Fold Change” value was 1.89.
